# Experimental data: US10813944B2, “Cyclodextrins as procoagulants” (STICHTING SANQUIN BLOEDVOORZIENING, priority 2016, dated 2020)
# Columns and labels:
# [1] = system: thrombin generation in pooled normal plasma; assay: Calibrated Automated Thrombogram thrombin generation assay in pooled normal plasma; type: biochemical, human
# [2] = system: thrombin generation in pooled normal plasma spiked with anticoagulants; assay: Thrombin generation assay in pooled normal plasma spiked with anticoagulants; type: biochemical, human; conditions: 1 pM TF
# Method: FIGS. 3-8, 12, 14-19 and 22-27: Pooled normal plasma was spiked with cyclodextrins (100 μM, unless otherwise indicated) and anticoagulants. The concentrations of the anticoagulants were 100 ng/ml for dabigatran (A), 100 ng/ml for rivaroxaban (B), 60 ng/ml for apixaban (C), 60 ng/ml for edoxaban (D). The plasmas were subjected to thrombin generation analysis as described in the Materials and Methods section with 1 pM tissue factor (TF) as initiator of coagulation.
# FIG. 9: Pooled normal plasma was spiked with OKL-1111 (100 μM, unless otherwise indicated (A)) and anticoagulants (B-E). The concentrations of the anticoagulants were 100 ng/ml for dabigatran (B), 100 ng/ml for rivaroxaban (C), 60 ng/ml for apixaban (D), 60 ng/ml for edoxaban (E). The plasmas were subjected to thrombin generation analysis as described in the Materials and Methods section with 1 pM tissue factor (TF) as initiator of coagulation.
# FIG. 10: Pooled normal plasma was spiked with OKL-1111 (100 μM) and anticoagulants (A-F). The concentrations of the anticoagulants were 2 μg/ml for fondaparinux (A), 0.4 U/ml for nadroparin (B), 0.1 U/ml for tinzaparin (C), 0.03 U/ml for unfractionated heparin (UFH) (D), 0.5 U/ml for hirudin (E) and 10 μg/ml for bivalirudin (F). The plasmas were subjected to thrombin generation analysis as described in the Materials and Methods section with 1 pM tissue factor (TF) as initiator of coagulation.
# (§1) The Calibrated Automated Thrombogram® assays the generation of thrombin in clotting plasma using a microtiter plate reading fluorometer (Fluoroskan Ascent, ThermoLab systems, Helsinki, Finland) and Thrombinoscope® software (Thrombinoscope BV, Maastricht, The Netherlands). The assay was carried out as described by Hemker et al. (Pathofysiol. IIaemost. Thromb. 2003, 33, 4-15), and the Thrombinoscope® manual. Coagulation was triggered by recalcification in the presence of 1 or 5 pM recombinant human tissue factor (Innovin®, Siemens, Marburg, Germany), 4 μM phospholipids, and 417 μM fluorogenic substrate Z-Gly-Gly-Arg-AMC (Bachem, Bubendorf, Switzerland). Fluorescence was monitored using the Fluoroskan Ascent fluorometer (ThermoLabsystems, Helsinki, Finland), and the lag time, peak thrombin, velocity index and area under the curve (ETP) were calculated using the Thrombinoscope® software (Thrombinoscope BV).
# [3] = system: plasma deficient in coagulation factor VIII; assay: Thrombin generation assay in plasma deficient in coagulation factor VIII; type: biochemical, human
# Method: FIG. 20: Plasma deficient in coagulation factor VIII was spiked with cyclodextrin OKL-1111 (A), OKL-1180 (B), and OKL-1187 (C) at the indicated concentrations.
# as §1
# [4] = system: normal human plasma pretreated with inhibitory antibodies against factor VIII; assay: Thrombin generation in normal plasma spiked with inhibitory antibodies against factor VIII; type: biochemical; conditions: antibody VK34 14 μg/ml; 1 pM TF
# Method: as §1
# Normal plasma was spiked with inhibitory antibodies against factor VIII (Sanquin, VK34, 14 μg/ml), factor IX (Sanquin, 5F5, 20 μg/ml) or factor XI (Sanquin, mix of #203 and #175, 75 μg/ml). The effect of OKL-1111 was tested in thrombin generation assay using 1 pM tissue factor (TF). This model is representative for hemophilia A, B and C patients that have developed inhibitory antibodies against plasma-derived or recombinant factor VIII or IX or XI they are treated with.
# [5] = system: human plasma deficient in coagulation factor XI; assay: Thrombin generation assay in human plasma deficient in coagulation factor XI; type: biochemical
# Method: as §1
# [6] = normal plasma, versus absence of cyclodextrin
compound,measurement,setting,value
O=C(O)CCCCCSCC1OC2OC3C(CSCCCCCC(=O)O)OC(OC4C(CSCCCCCC(=O)O)OC(OC5C(CSCCCCCC(=O)O)OC(OC6C(CSCCCCCC(=O)O)OC(OC7C(CSCCCCCC(=O)O)OC(OC8C(CSCCCCCC(=O)O)OC(OC9C(CSCCCCCC(=O)O)OC(OC1C(O)C2O)C(O)C9O)C(O)C8O)C(O)C7O)C(O)C6O)C(O)C5O)C(O)C4O)C(O)C3O (stereo not drawn) [OKL-1111],procoagulant effect in normal plasma,"[1]; no anticoagulant, cyclodextrin 100 μM unless otherwise indicated, 1 pM TF",very strong procoagulant effects
same,lag time,[1]; [6],considerably shorter
same,peak thrombin,[1]; [6],largely increased
same,restoring thrombin generation in plasma anticoagulated with unfractionated heparin,"[2]; UFH 0.03 U/ml, OKL-1111 100 μM",capable of restoring thrombin generation
same,effect on the anticoagulant effect of apixaban,"[2]; apixaban 60 ng/ml, cyclodextrin 100 μM",restoration of thrombin generation to levels far above that of non-anticoagulated plasma
same,restoring thrombin generation in plasma anticoagulated with bivalirudin,"[2]; bivalirudin 10 μg/ml, OKL-1111 100 μM",capable of restoring thrombin generation
same,effect on the anticoagulant effect of dabigatran,"[2]; dabigatran 100 ng/ml, cyclodextrin 100 μM",restoration of thrombin generation to levels far above that of non-anticoagulated plasma
same,effect on the anticoagulant effect of edoxaban,"[2]; edoxaban 60 ng/ml, cyclodextrin 100 μM",restoration of thrombin generation to levels far above that of non-anticoagulated plasma
same,restoring thrombin generation in plasma anticoagulated with pentasaccharide (arixtra),"[2]; fondaparinux 2 μg/ml, OKL-1111 100 μM",capable of restoring thrombin generation
same,restoring thrombin generation in plasma anticoagulated with hirudin,"[2]; hirudin 0.5 U/ml, OKL-1111 100 μM",capable of restoring thrombin generation
same,restoring thrombin generation in plasma anticoagulated with low molecular weight heparin,"[2]; nadroparin 0.4 U/ml, tinzaparin 0.1 U/ml, OKL-1111 100 μM",capable of restoring thrombin generation
same,effect on the anticoagulant effect of rivaroxaban,"[2]; rivaroxaban 100 ng/ml, cyclodextrin 100 μM",restoration of thrombin generation to levels far above that of non-anticoagulated plasma
same,procoagulant effect in factor VIII deficient plasma,[3],stimulate coagulation significantly
same,thrombin generation in plasma with inhibitory antibodies against factor VIII,[4],concentration-dependently stimulated thrombin generation
same,stimulation of coagulation in factor XI deficient plasma,[5],stimulate coagulation significantly
